Values after ≈ are worked out from the molar mass of the structure shown. Values joined by “and” are separate entries in the source; they are usually repeats but may differ in a detail not shown here. Identical values can stand only once.
Legend:
Assay in all cases: ≥ marks a high value that may be exact or a test limit, other limits are often not marked, values filed in µg/mL are converted to µM
[1] = tested on: Escherichia coli ATCC 25922
[2] = tested on: Pseudomonas aeruginosa ATCC 15692
[3] = tested on: Bacillus subtilis KCTC 1998
[4] = tested on: Staphylococcus aureus ATCC 29213
[5] = tested on: Staphylococcus epidermidis ATCC 12228
[6] = tested on: Proteus vulgaris KCTC 2433
[7] = tested on: Listeria monocytogenes ATCC 3710
[8] = tested on: Fusarium oxysporum
[9] = tested on: Bacillus subtilis ATCC 23857
[10] = tested on: Ramulariopsis gossypii
[11] = tested on: Pectobacterium carotovorum
[12] = tested on: Fusarium oxysporum f.sp. vasinfectum
[13] = tested on: Cryptococcus neoformans ATCC 28957
[14] = tested on: Trichoderma asperellum
[15] = tested on: Xanthomonas campestris pv. citri
[16] = tested on: Pseudomonas syringae pv. tabaci
[17] = tested on: Candida albicans ATCC 90028
[18] = tested on: Enterococcus faecalis 981
[19] = tested on: Shigella sp.
[20] = tested on: Staphylococcus aureus 08032810
[21] = tested on: Bacillus cereus
[22] = tested on: Candida albicans 08030809
[23] = tested on: Klebsiella oxytoca
[24] = tested on: Candida albicans 08022710
[25] = tested on: Stenotrophomonas maltophilia
[26] = tested on: Salmonella enterica subsp. enterica serovar Paratyphi A
[27] = tested on: Pseudomonas aeruginosa ATCC 27853
[28] = tested on: Candida albicans 08030102
[29] = tested on: Enterococcus faecium 1299
[30] = tested on: Nocardia asteroides
[31] = tested on: Staphylococcus aureus 08032706
[32] = tested on: Staphylococcus aureus ATCC 25923
[33] = tested on: Escherichia coli
[34] = tested on: Candida albicans 08030401
[35] = tested on: Staphylococcus aureus 08032712
[36] = tested on: Candida glabrata 08A802
[37] = tested on: Candida glabrata 09050201
[38] = tested on: Staphylococcus epidermidis
[39] = tested on: Pseudomonas aeruginosa 08031014
[40] = tested on: Klebsiella pneumoniae 1400
[41] = tested on: Vibrio alginolyticus
[42] = tested on: Staphylococcus aureus
[43] = tested on: Vibrio fluvialis
[44] = tested on: Streptococcus pyogenes
[45] = tested on: Aeromonas hydrophila
[46] = tested on: Vibrio parahaemolyticus

CC[C@H](C)[C@H](NC(=O)CNC(=O)[C@H](Cc1cnc[nH]1)NC(=O)[C@H](CCCCN)NC(=O)[C@@H](NC(=O)[C@H](CO)NC(=O)CNC(=O)[C@@H](NC(=O)[C@H](Cc1ccccc1)NC(=O)[C@H](CCCN=C(N)N)NC(=O)[C@H](CCCCN)NC(=O)[C@@H](N)Cc1ccccc1)[C@@H](C)CC)C(C)C)C(=O)NCC(=O)N[C@@H](Cc1cnc[nH]1)C(=O)N[C@@H](CC(C)C)C(=O)N[C@H](C(=O)N[C@@H](Cc1cnc[nH]1)C(=O)N[C@@H](Cc1cnc[nH]1)C(=O)N[C@H](C(=O)NCC(=O)N[C@H](C(=O)N[C@@H](C)C(=O)N[C@@H](CC(C)C)C(N)=O)C(C)C)[C@@H](C)CC)C(C)C [FKRFIGSVKHGIGHLVHHIGVAL]
MIC [1]: 2 µM and 4 µM | MIC [2]: ≥ 32 µM | MIC [3]: 8 µM and 16 µM | MIC [4]: 8 µM (≈ 20.2 µg/mL) | MIC [5]: 4 µM and 8 µM | MIC [6]: 4 µM and 8 µM | MIC [7]: 16 µM and 8 µM

CC(C)C[C@H](NC(=O)[C@H](C)NC(=O)[C@H](CCCN=C(N)N)NC(=O)[C@@H](NC(=O)[C@H](CCC(N)=O)NC(=O)[C@H](CCCCN)NC(=O)[C@H](CCCCN)NC(=O)[C@H](C)NC(=O)[C@H](CC(C)C)NC(=O)[C@H](CCCCN)NC(=O)[C@H](C)NC(=O)CN)C(C)C)C(=O)NCC(=O)N[C@@H](CCCCN)C(=O)N[C@@H](Cc1ccccc1)C(=O)N[C@@H](Cc1ccccc1)C(=O)N[C@@H](CO)C(=O)N[C@@H](Cc1ccccc1)C(N)=O [GAKLAKKQVRALGKFFSF]
MIC [1]: 16 µM (≈ 31.9 µg/mL) | MIC [8]: ≥ 256 µM | MIC [9]: 8 µM (≈ 16 µg/mL) | MIC [10]: 16 µM (≈ 31.9 µg/mL) | MIC [11]: ≥ 32 µM | MIC [12]: ≥ 64 µM | MIC [13]: ≥ 64 µM | MIC [14]: ≥ 128 µM | MIC [15]: ≥ 32 µM | MIC [16]: 8 µM (≈ 16 µg/mL) | MIC [17]: ≥ 128 µM

CC[C@H](C)[C@H](NC(=O)[C@H](CCCN=C(N)N)NC(=O)[C@H](Cc1c[nH]c2ccccc12)NC(=O)CNC(=O)[C@H](Cc1ccc(O)cc1)NC(=O)[C@H](CCCN=C(N)N)NC(=O)[C@H](CCCN=C(N)N)NC(=O)[C@H](C)NC(=O)[C@H](Cc1ccccc1)NC(=O)[C@H](CCCN=C(N)N)NC(=O)CNC(=O)[C@H](C)NC(=O)CNC(=O)[C@H](CCCN=C(N)N)NC(=O)[C@@H](NC(=O)[C@H](Cc1ccccc1)NC(=O)[C@H](CCCN=C(N)N)NC(=O)[C@H](CCCN=C(N)N)NC(=O)[C@H](Cc1c[nH]c2ccccc12)NC(=O)[C@H](CCCN=C(N)N)NC(=O)[C@H](CO)NC(=O)[C@H](CCCN=C(N)N)NC(=O)[C@@H](N)[C@@H](C)O)[C@@H](C)CC)C(=O)N[C@@H](C)C(=O)N[C@@H](CC(C)C)C(=O)NCC(=O)N[C@@H](CC(C)C)C(=O)N[C@H](C(=O)NCC(=O)O)C(C)C [TRSRWRRFIRGAGRFARRYGWRIALGLVG]
MIC [18]: 10.7 µM (≈ 37.5 µg/mL) | MIC [1]: 5.37 µM (≈ 18.8 µg/mL) | MIC [19]: 1.34 µM (≈ 4.69 µg/mL) | MIC [20]: 5.37 µM (≈ 18.8 µg/mL) | MIC [21]: 2.69 µM (≈ 9.38 µg/mL) | MIC [22]: 5.37 µM (≈ 18.8 µg/mL) | MIC [23]: 5.37 µM (≈ 18.8 µg/mL) | MIC [24]: 5.37 µM (≈ 18.8 µg/mL) | MIC [25]: 5.37 µM (≈ 18.8 µg/mL) | MIC [26]: 10.7 µM (≈ 37.5 µg/mL) | MIC [27]: 5.37 µM (≈ 18.8 µg/mL) | MIC [28]: 5.37 µM (≈ 18.8 µg/mL) | MIC [29]: 5.37 µM (≈ 18.8 µg/mL) | MIC [30]: 2.69 µM (≈ 9.38 µg/mL) | MIC [31]: 5.37 µM (≈ 18.8 µg/mL) | MIC [32]: 5.37 µM (≈ 18.8 µg/mL) | MIC [33]: 5.37 µM (≈ 18.8 µg/mL) | MIC [34]: 2.69 µM (≈ 9.38 µg/mL) | MIC [35]: 5.37 µM (≈ 18.8 µg/mL) | MIC [36]: 2.69 µM (≈ 9.38 µg/mL) | MIC [37]: 5.37 µM (≈ 18.8 µg/mL) | MIC [38]: 5.37 µM (≈ 18.8 µg/mL) | MIC [39]: 2.69 µM (≈ 9.38 µg/mL) | MIC [40]: 7.49 µM (≈ 26.2 µg/mL)

CC[C@H](C)[C@H](NC(=O)[C@H](CCCCN)NC(=O)[C@H](Cc1cnc[nH]1)NC(=O)[C@H](CC(C)C)NC(=O)[C@H](CC(C)C)NC(=O)CNC(=O)[C@H](CC(N)=O)NC(=O)[C@@H](N)C(C)C)C(=O)N[C@@H](Cc1ccc(O)cc1)C(=O)NCC(=O)N[C@@H](CC(N)=O)C(=O)N[C@H](C(=O)N[C@@H](CCCN=C(N)N)C(=O)N[C@@H](Cc1ccc(O)cc1)C(=O)N[C@@H](CO)C(=O)O)[C@@H](C)CC [VNGLLHKIYGNIRYS]
MIC [41]: ≥ 143 µM | MIC [42]: > 143 µM | MIC [43]: ≥ 143 µM | MIC [33]: 8.93 µM (≈ 15.6 µg/mL) | MIC [44]: 8.93 µM (≈ 15.6 µg/mL) | MIC [45]: 8.93 µM (≈ 15.6 µg/mL) | MIC [46]: ≥ 35.8 µM
